Earlier results in US8481518B2, “Quaternary antimuscarinic compounds for the treatment of bladder diseases” (University of Rochester, priority 2003, dated 2013).
Where a name gives a salt, the structure may show the parent alone.

Tests used:
[1] = oral, 5 mg/kg four times/day
[2] = intravesical instillation two to three times daily
[3] = generally 25 mg twice daily, adults with urge incontinence
[4] = test system: all subtypes of human muscarinic receptors; conditions: in vitro

For `CCN(CC)CC#CCOC(=O)C(O)(c1ccccc1)C1CCCCC1` (stereo not drawn) [oxybutynin, (4-diethylamino)2-butynyl-cc-cyclohexyl-a-hydroxybenzeneacetate HCl], the “severe mouth dryness, subjects affected” value [1] is listed as 84% and the “patients dropping out due to inability to tolerate catheterization or difficulty retaining drug solution” value [2] is listed as 21%.
In the case of `COC(=O)C1=CC[C@@H]2CC[C@H]1N2C` [AEME, Anhydroecgonine methyl ester], the cholinergic agonist activity (muscarinic receptors; guinea pig tracheal rings and detrusor muscle in vitro) is given as “lacked cholinergic agonist activity” and the muscarinic antagonism (muscarinic receptors; in vitro) is given as “potent non-competitive muscarinic antagonist”.
For `CC(CC(c1ccccc1)c1ccccc1)NC(C)(C)C` (stereo not drawn) [terodiline], the “effect on micturition frequency and incontinence episodes” value [3] is given as “reduced micturition frequency and incontinence episodes”.
For `C[N+]1(C)[C@@H]2C[C@@H](OC(=O)C(O)(c3cccs3)c3cccs3)C[C@H]1[C@@H]1O[C@@H]12` [tiotropium bromide, 6β,7β,Epoxy-3α-[2-hydroxy-2,2-di(2-thienyl)acetoxy]-8,8-dimethyl-1αH,5αH-tropanium bromide], the “antagonism at all subtypes of human muscarinic receptors” value [4] is given as 10-11 M.
